According to ChEMBL document CHEMBL1201862, “PubChem BioAssay data set” (2004):
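Following 48 hours of exposure in 96-well plates, responses at five concentrations were used to interpolate endpoints linearly. Here, GI50 denotes the concentration required for 50% inhibition of growth.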 The source made the active and inactive calls. Cut-off read from the data, not from the text of the source: active = GI50 up to about 1.1 µM and inactive = higher.

How the values were obtained:
Assay in all cases: inhibition of tumour cell growth, NCI panel, 48 h
SK-MEL-2 = system: SK-MEL-2
UACC-257 = system: UACC-257
SF-539 = system: SF-539
U-251 = system: U-251
OVCAR-5 = system: OVCAR-5
CAKI-1 = system: CAKI-1
SNB-19 = system: SNB-19
SK-OV-3 = system: SK-OV-3
K562 = system: K562
UO-31 = system: UO-31
SF-268 = system: SF-268
EKVX = system: EKVX
SW-620 = system: SW-620
SK-MEL-28 = system: SK-MEL-28
HOP-62 = system: HOP-62
SR = system: SR
NCI-H460 = system: NCI-H460

Measured: GI50

COC(=O)CN(C)P(=O)(N1CC1)N1CC1
inactive: SK-MEL-2 > 100 µM | UACC-257 > 100 µM | SF-539 > 100 µM | U-251 > 100 µM | OVCAR-5 > 100 µM | CAKI-1 > 100 µM | SNB-19 > 100 µM | SK-OV-3 > 100 µM | K562 > 100 µM | UO-31 > 100 µM | SF-268 89.7 µM | EKVX > 100 µM | SW-620 > 100 µM | SK-MEL-28 > 100 µM

CCN(CC)/[N+]([O-])=N/O
inactive: SK-MEL-2 > 100 µM | UACC-257 > 100 µM | SF-539 > 100 µM | OVCAR-5 > 100 µM | HOP-62 > 100 µM | CAKI-1 > 100 µM | SNB-19 > 100 µM | SK-OV-3 > 100 µM | K562 > 100 µM | UO-31 > 100 µM | SF-268 > 100 µM | EKVX > 100 µM | SW-620 > 100 µM | SR > 100 µM | SK-MEL-28 > 100 µM | NCI-H460 > 100 µM

CCNC(=S)NNC(=O)c1nsc2ccccc12
inactive: SK-MEL-2 2.88 µM | UACC-257 > 100 µM | SF-539 > 100 µM | U-251 94.2 µM | OVCAR-5 > 100 µM | HOP-62 73.6 µM | SNB-19 > 100 µM | K562 64.9 µM | UO-31 52.8 µM | SF-268 81.5 µM | EKVX 18.7 µM | SW-620 > 100 µM | SR 64 µM | SK-MEL-28 > 100 µM | NCI-H460 50.1 µM

COc1ccc(/N=C\c2ccc(N(CCC#N)S(=O)(=O)c3ccccc3)cc2C)cc1
inactive: SK-MEL-2 23.3 µM | UACC-257 39.5 µM | SF-539 44.2 µM | U-251 > 100 µM | OVCAR-5 > 100 µM | HOP-62 25.1 µM | CAKI-1 35.5 µM | SNB-19 > 100 µM | SK-OV-3 > 100 µM | K562 11.1 µM | UO-31 23.3 µM | SF-268 3.58 µM | EKVX > 100 µM | SW-620 59.8 µM | SR 7.96 µM | SK-MEL-28 39.9 µM | NCI-H460 34.8 µM

O=C(Nc1ccc([N+](=O)[O-])cc1)C(=O)C(C(=O)c1ccccc1F)C1OC(=O)c2ccccc21 (centres undefined)
inactive: SK-MEL-2 23.7 µM | UACC-257 86.5 µM | SF-539 21.5 µM | U-251 17.7 µM | OVCAR-5 58.3 µM | HOP-62 58.1 µM | CAKI-1 59.4 µM | SNB-19 26.4 µM | SK-OV-3 41.2 µM | K562 25.3 µM | UO-31 38.1 µM | SF-268 35 µM | EKVX 40.4 µM | SW-620 49 µM | SR 21.9 µM | SK-MEL-28 46.9 µM | NCI-H460 34.9 µM
